Patent US5214174A, “Platinum complex and anti-tumor agent comprising said complex as active ingredient” (Tsumura & Co., priority 1989, dated 1993)

Columns and labels:
[1] = test system: Mouse leukemia L1210 cells; assay: Anti-tumor effect (life prolongation) in mice transplanted with L1210 cells; format: in vivo, mouse (female BDF1); conditions: abdominal cavity; for T/C (life prolongation ratio) / ratio of the number of surviving mice to the number of tested mice / Average Survival Day Number / ILS30 (dose giving a 30% life-prolonging effect over the control group) / ILSmax (dose giving a highest life-prolonging effect) / TR (cure ratio; ILSmax/ILS30): once a day for 3 days; for ratio of the number of surviving mice to the number of tested mice: 30th day; for Average Survival Day Number: 30 days
Method: Mouse leukemia L1210 cells (1×10^5) were transplanted into the abdominal cavity of a 6-weeks-old female BDF1 mouse. Then, continuously for 3 days from the next day, a compound of a compound obtained in an example described below or CDDP was administered to the abdominal cavity once a day. In the control group, physiological saline solution alone was similarly administered.
The anti-tumor effect was evaluated based on the life prolongation ratio (T/C value) determined from the average survival day numbers of the group of the compound obtained in the example and the control group after 30 days from the transplantation of L1210. On the 30th day from the transplantation, the experiment was concluded. In the case of mice surviving for more than 30 days, the survival day number was regarded as 30. [formula] The average survival day number at each dose, the T/C value (%) and the ratio of the number of surviving mice upon termination of the experiment to the number of tested mice are shown in Table 2. The ILS30 value (the dose giving a 30% life-prolonging effect over the control group), the ILSmax value (the dose giving a highest life-prolonging effect), the TR value (cure ratio; ILSmax /ILS30) and the CR value (the ratio of the number of mice completely cured at the ILSmax value and the number of mice showing no propagation of a tumor after 30 days from the transplantation to the number of tested mice) are shown in Table 3.
Note, 1 indicates the ratio of the number of surviving mice to the number of tested mice.

[2] = test system: Hela human uterine neck cancer cells; assay: Inhibition of propagation of cancer cells, MTT method, 48 hours; format: cell-based; conditions: 37° C.
Method: (§1) L1210 mouse leukemia cells, P388 mouse leukemia cells, Hela human uterine neck cancer cells, T24 human bladder cancer cells or MCF7 human mammary cancer cells were suspended in Eagle medium (Hela and T24) containing 10% bovine fetal serum, PRMI1640 medium (L1210 and MCF7) or PRM11740 medium (P388) mixed with 5×10^-5 M mercaptoethanol, and the cells were seeded on a 96-well plate at an inoculum size of 3×10^3 cells per hole. A compound obtained in an example described below or cysplatin (CDDP) was diluted with physiological saline solution and added to the medium at various concentrations. Culturing was conducted at 37° C. for 48 hours in a carbon dioxide incubator, and the propagation of cells was determined by the MTT [3-(4,5-dimethylthiazol-2-yl-)-2,5-diphenyl tetrazolium bromide] method (J. Immunol. Method, 65, 55, 1983). The absorbance A after 48 hours of culturing at each concentration, the absorbance B after 48 hours of culturing in the control, and the absorbance C before addition of the compound obtained in the example were determined, and the propagation reaction rate D of each concentration was calculated from the following formula: [formula] The concentration IC50, unit: μg/ml) of the compound obtained in the example giving the value corresponding to 50% of the value of the control was determined from the curve showing the relationship between the concentration of the compound obtained in the example and the propagation reaction rate.

[3] = test system: L1210 mouse leukemia cells; assay: as above; format: cell-based; conditions: 37° C.
Method: as §1

[4] = test system: T24 human bladder cancer cells; assay: as above; format: cell-based; conditions: 37° C.
Method: as §1

[5] = test system: P388 mouse leukemia cells; assay: as above; format: cell-based; conditions: 37° C.
Method: as §1

[6] = test system: MCF7 human mammary cancer cells; assay: as above; format: cell-based; conditions: 37° C.
Method: as §1

[7] = Acute toxicity test; format: in vivo, mouse (male, ICR family); conditions: administration into the abdominal cavity, male ICR mice

Compound: 1:1 mixture of oxalate-(1R,2R)-diaminocyclooctane platinum (II) and oxalate-(1S,2S)-diaminocyclooctane platinum (II) [Example 1]
- T/C (life prolongation ratio) ([1]; 0.3 mg/kg): > 183%
- ratio of the number of surviving mice to the number of tested mice ([1]; 0.3 mg/kg): 1/6
- Average Survival Day Number ([1]; 0.3 mg/kg): > 16.8 days
- T/C (life prolongation ratio) ([1]; 1.0 mg/kg): > 214%
- ratio of the number of surviving mice to the number of tested mice ([1]; 1.0 mg/kg): 1/6
- Average Survival Day Number ([1]; 1.0 mg/kg): > 19.7 days
- T/C (life prolongation ratio) ([1]; 3.0 mg/kg): > 220%
- ratio of the number of surviving mice to the number of tested mice ([1]; 3.0 mg/kg): 2/6
- Average Survival Day Number ([1]; 3.0 mg/kg): > 20.3 days
- T/C (life prolongation ratio) ([1]; 10.0 mg/kg): > 326%
- ratio of the number of surviving mice to the number of tested mice ([1]; 10.0 mg/kg): 6/6
- Average Survival Day Number ([1]; 10.0 mg/kg): > 30.0 days
- ILS30 (dose giving a 30% life-prolonging effect over the control group) [1]: 0.06 mg/kg
- ILSmax (dose giving a highest life-prolonging effect) [1]: 10.0 mg/kg
- TR (cure ratio; ILSmax/ILS30) [1]: 167
- CR (ratio of mice completely cured at ILSmax and showing no propagation of a tumor after 30 days to tested mice) [1]: 6/6
- IC50 [2]: 0.29 µg/mL
- IC50 [3]: 0.03 µg/mL
- IC50 [4]: 1.43 µg/mL
- IC50 [5]: 0.06 µg/mL
- IC50 [6]: 0.41 µg/mL

Compound: [NH2][Pt]([NH2])([Cl])[Cl] [CDDP, cisplatin, reference compound]
- ILS30 (dose giving a 30% life-prolonging effect over the control group) [1]: 1.5 mg/kg
- ILSmax (dose giving a highest life-prolonging effect) [1]: 6.0 mg/kg
- TR (cure ratio; ILSmax/ILS30) [1]: 4
- CR (ratio of mice completely cured at ILSmax and showing no propagation of a tumor after 30 days to tested mice) [1]: 3/6
- IC50 [2]: 1.42 µg/mL
- IC50 [3]: 0.46 µg/mL
- IC50 [4]: 1.51 µg/mL
- IC50 [5]: 0.09 µg/mL
- IC50 [6]: 3.28 µg/mL
- LD50 [7]: 14.6 mg/kg
